In publication doi:10.1101/2025.01.28.635346v1 (bioRxiv, 2025):
Read-outs that look alike come from different tables or passages of the source. Each block holds one compound with its values, some of them ahead of it. Bridge positions count the residues as written; N and C are the ends. Side chains are listed from the residue outwards. Peptide text beside a SMILES is read from it. * marks the point of attachment. Butanoyl(4-(4-I-phenyl)) = O=C(CCCc1ccc(I)cc1)*; PEG2 = NCCOCCOCCC(=O)O

Assays:
integrin αvβ6 = integrin αvβ6 (Homo sapiens, UniProt P06756+P18564); test: ELISA competition assay, integrin αvβ6 binding to LAP
integrin αvβ8 = integrin αvβ8 (Homo sapiens, UniProt P06756+P26012); test: ELISA competition assay, integrin αvβ8 binding to LAP
[1] = Pharmacokinetics in female Balb/c mice; type: in vivo, mouse
[2] = αvβ6 IC50, ELISA competition vs LAP, mean, n ≥ 3
[3] = Table S3E, IP 10 mg/kg, mouse, animal 1F001
[4] = Table S3E, IP 10 mg/kg, mouse, animal 1F002
[5] = Table S3E, IP 10 mg/kg, mouse, animal 1F003
[6] = Table S3E, IP 10 mg/kg, mouse, animal 1F005
[7] = female, Balb/c, mouse, plasma, ip, 10 mg/kg

Compound: CC[C@H](C)[C@@H]1NC(=O)[C@H](CO)NC(=O)CNC(=O)[C@H](CCCNC(=N)N)NC(=O)CNC(=O)CNC(=O)CC[C@@H](C(=O)N[C@@H](Cc2ccc(O)cc2)C(=O)N[C@@H](Cc2ccccc2)C(=O)N[C@H](C(=O)N[C@@H](CCCNC(=N)N)C(=O)NCC(=O)N[C@@H](CC(=O)O)C(=O)N[C@@H](CC(C)C)C(=O)N[C@@H](CCC(N)=O)C(=O)N[C@@H](CO)C(=O)N[C@@H](Cc2ccccc2)C(=O)N[C@@H](Cc2ccc(O)cc2)C(=O)N[C@@H](CCCCN)C(=O)O)C(C)C)NC(=O)[C@@H]2CCCN2C1=O [lassotide 43] (GGRGSIPEYFVRGDLQSFYK-OH; lactam N-8; C-terminus assumed)
- IC50 (integrin αvβ6; [2]): 1.2 nM
- IC50 (integrin αvβ8): 5.1 nM

Compound: CC[C@H](C)[C@H](NC(=O)[C@H](CC(C)C)NC(=O)[C@H](CC(=O)O)NC(=O)CNC(=O)[C@H](CCCNC(=N)N)NC(=O)[C@@H](NC(=O)[C@H](Cc1ccccc1)NC(=O)[C@H](Cc1ccc(O)cc1)NC(=O)[C@@H]1CCC(=O)NCC(=O)NCC(=O)N[C@@H](CCCCNC(=O)CCOCCOCCNC(=O)CCCc2ccc(I)cc2)C(=O)NCC(=O)N[C@@H](Cc2c[nH]cn2)C(=O)N[C@@H](C(C)C)C(=O)N2CCC[C@H]2C(=O)N1)C(C)C)C(=O)N[C@@H](CO)C(=O)N[C@@H](Cc1ccccc1)C(=O)N[C@@H](Cc1ccc(O)cc1)C(=O)N[C@@H](CCCCNC(=O)CCOCCOCCNC(=O)CCCc1ccc(I)cc1)C(=O)O [lassotide 52] (GGK([PEG2-Butanoyl(4-(4-I-phenyl))])GHVPEYFVRGDLISFYK([PEG2-Butanoyl(4-(4-I-phenyl))])-OH; lactam N-8)
- further increase in half-life ([1]; 52 vs 47, 10 mg/kg IP, mice): 4.4 fold
- Plasma Concentration ([1]; IP 10 mg/kg, 1.0 h, animal 1F001): 31600 ng/mL
- Plasma Concentration ([1]; IP 10 mg/kg, 1.0 h, animal 1F002): 21000 ng/mL
- Plasma Concentration ([1]; IP 10 mg/kg, 1.0 h, animal 1F003): 36300 ng/mL
- Plasma Concentration ([1]; IP 10 mg/kg, 1.0 h, animal 1F005): 34200 ng/mL
- Plasma Concentration ([1]; IP 10 mg/kg, 2.0 h, animal 1F001): 50800 ng/mL
- Plasma Concentration ([1]; IP 10 mg/kg, 2.0 h, animal 1F002): 35000 ng/mL
- Plasma Concentration ([1]; IP 10 mg/kg, 2.0 h, animal 1F003): 53100 ng/mL
- Plasma Concentration ([1]; IP 10 mg/kg, 2.0 h, animal 1F005): 40000 ng/mL
- Plasma Concentration ([1]; IP 10 mg/kg, 4.0 h, animal 1F001): 54500 ng/mL
- Plasma Concentration ([1]; IP 10 mg/kg, 4.0 h, animal 1F002): 51100 ng/mL
- Plasma Concentration ([1]; IP 10 mg/kg, 4.0 h, animal 1F003): 59300 ng/mL
- Plasma Concentration ([1]; IP 10 mg/kg, 4.0 h, animal 1F005): 43400 ng/mL
- Plasma Concentration ([1]; IP 10 mg/kg, 8.0 h, animal 1F001): 45300 ng/mL
- Plasma Concentration ([1]; IP 10 mg/kg, 8.0 h, animal 1F002): 43800 ng/mL
- Plasma Concentration ([1]; IP 10 mg/kg, 8.0 h, animal 1F003): 51000 ng/mL
- Plasma Concentration ([1]; IP 10 mg/kg, 8.0 h, animal 1F005): 35200 ng/mL
- Plasma Concentration ([1]; IP 10 mg/kg, 12 h, animal 1F001): 37900 ng/mL
- Plasma Concentration ([1]; IP 10 mg/kg, 12 h, animal 1F002): 43800 ng/mL
- Plasma Concentration ([1]; IP 10 mg/kg, 12 h, animal 1F003): 43800 ng/mL
- Plasma Concentration ([1]; IP 10 mg/kg, 12 h, animal 1F005): 30500 ng/mL
- Plasma Concentration ([1]; IP 10 mg/kg, 24 h, animal 1F001): 22500 ng/mL
- Plasma Concentration ([1]; IP 10 mg/kg, 24 h, animal 1F002): 24300 ng/mL
- Plasma Concentration ([1]; IP 10 mg/kg, 24 h, animal 1F003): 34800 ng/mL
- Plasma Concentration ([1]; IP 10 mg/kg, 24 h, animal 1F005): 19900 ng/mL
- Plasma Concentration ([1]; IP 10 mg/kg, 36 h, animal 1F001): 16100 ng/mL
- Plasma Concentration ([1]; IP 10 mg/kg, 36 h, animal 1F002): 17400 ng/mL
- Plasma Concentration ([1]; IP 10 mg/kg, 36 h, animal 1F003): 22000 ng/mL
- Plasma Concentration ([1]; IP 10 mg/kg, 36 h, animal 1F005): 13400 ng/mL
- Plasma Concentration ([1]; IP 10 mg/kg, 48 h, animal 1F001): 11200 ng/mL
- Plasma Concentration ([1]; IP 10 mg/kg, 48 h, animal 1F002): 12400 ng/mL
- Plasma Concentration ([1]; IP 10 mg/kg, 48 h, animal 1F003): 13200 ng/mL
- Plasma Concentration ([1]; IP 10 mg/kg, 48 h, animal 1F005): 7330 ng/mL
- AUClast [1, 3]: 1290 µg·h/mL
- CL/F [1, 3]: 0.104 mL/min/kg
- Cmax [1, 3]: 54500 ng/mL
- Tmax [1, 3]: 4.0 h
- Vz/F [1, 3]: 0.179 L/kg
- t1/2 [1, 3]: 20 h
- AUClast [1, 4]: 1330 µg·h/mL
- CL/F [1, 4]: 0.0981 mL/min/kg
- Cmax [1, 4]: 51100 ng/mL
- Tmax [1, 4]: 4.0 h
- Vz/F [1, 4]: 0.176 L/kg
- t1/2 [1, 4]: 21 h
- AUClast [1, 5]: 1610 µg·h/mL
- CL/F [1, 5]: 0.0829 mL/min/kg
- Cmax [1, 5]: 59300 ng/mL
- Tmax [1, 5]: 4.0 h
- Vz/F [1, 5]: 0.151 L/kg
- t1/2 [1, 5]: 21 h
- AUClast [1, 6]: 1050 µg·h/mL
- CL/F [1, 6]: 0.134 mL/min/kg
- Cmax [1, 6]: 43400 ng/mL
- Tmax [1, 6]: 4.0 h
- Vz/F [1, 6]: 0.21 L/kg
- t1/2 [1, 6]: 18 h
- Tmax ([1]; Table S3E: IP 10 mg/kg, female Balb/c mice, Mean N=4): 4.00 h
- AUC(0-t) [1, 7]: 1320 µg·h/mL
- CL/F [1, 7]: 0.105 mL/min/kg
- Cmax [1, 7]: 52100 ng/mL
- Tmax [1, 7]: 4 h
- Vd/F [1, 7]: 0.179 L/kg
- half-life [1, 7]: 20 h
- level at 1 h [1, 7]: 30800 ng/mL
- level at 2 h [1, 7]: 44700 ng/mL
- level at 4 h [1, 7]: 52100 ng/mL
- level at 8 h [1, 7]: 43800 ng/mL
- level at 12 h [1, 7]: 39000 ng/mL
- level at 24 h [1, 7]: 25400 ng/mL
- level at 36 h [1, 7]: 17200 ng/mL
- level at 48 h [1, 7]: 11000 ng/mL

Compound: CC[C@H](C)[C@@H]1NC(=O)[C@H](CCC(N)=O)NC(=O)CNC(=O)[C@H](CCCNC(=N)N)NC(=O)CNC(=O)CNC(=O)CC[C@@H](C(=O)N[C@@H](Cc2ccc(O)cc2)C(=O)N[C@@H](Cc2ccccc2)C(=O)N[C@H](C(=O)N[C@@H](CCCNC(=N)N)C(=O)NCC(=O)N[C@@H](CC(=O)O)C(=O)N[C@@H](CC(C)C)C(=O)N[C@@H](CCC(N)=O)C(=O)N[C@@H](CO)C(=O)N[C@@H](Cc2ccccc2)C(=O)N[C@@H](Cc2ccc(O)cc2)C(=O)NCC(=O)O)C(C)C)NC(=O)[C@@H]2CCCN2C1=O [lassotide 42] (GGRGQIPEYFVRGDLQSFYG-OH; lactam N-8; C-terminus assumed)
- IC50 (integrin αvβ6; [2]): 3 nM
- IC50 (integrin αvβ8): 2.5 nM

Compound: CC[C@H](C)[C@H](NC(=O)[C@H](CC(C)C)NC(=O)[C@H](CC(=O)O)NC(=O)CNC(=O)[C@H](CCCNC(=N)N)NC(=O)[C@@H](NC(=O)[C@H](Cc1ccccc1)NC(=O)[C@H](Cc1ccc(O)cc1)NC(=O)[C@@H]1CCC(=O)NCC(=O)NCC(=O)N[C@@H](CC(C)C)C(=O)NCC(=O)N[C@@H](Cc2c[nH]cn2)C(=O)N[C@@H](C(C)C)C(=O)N2CCC[C@H]2C(=O)N1)C(C)C)C(=O)N[C@@H](CO)C(=O)N[C@@H](Cc1ccccc1)C(=O)N[C@@H](Cc1ccc(O)cc1)C(=O)NCC(=O)O [lassotide 32] (GGLGHVPEYFVRGDLISFYG-OH; lactam N-8; C-terminus assumed)
- IC50 (integrin αvβ6; [2]): 53 nM
- IC50 (integrin αvβ8): 32 nM

Compound: CC[C@H](C)[C@H](NC(=O)[C@H](CC(C)C)NC(=O)[C@H](CC(=O)O)NC(=O)CNC(=O)[C@H](CCCNC(=N)N)NC(=O)[C@@H](NC(=O)[C@H](Cc1ccccc1)NC(=O)[C@H](Cc1ccc(O)cc1)NC(=O)[C@@H]1CCC(=O)NCC(=O)NCC(=O)N[C@@H]([C@@H](C)O)C(=O)NCC(=O)N[C@@H](Cc2c[nH]cn2)C(=O)N[C@@H](C(C)C)C(=O)N2CCC[C@H]2C(=O)N1)C(C)C)C(=O)N[C@@H](CO)C(=O)N[C@@H](Cc1ccccc1)C(=O)N[C@@H](Cc1ccc(O)cc1)C(=O)NCC(=O)O [lassotide 34] (GGTGHVPEYFVRGDLISFYG-OH; lactam N-8; C-terminus assumed)
- IC50 (integrin αvβ6; [2]): 44 nM
- IC50 (integrin αvβ8): 28 nM

Compound: CC[C@H](C)[C@@H]1NC(=O)[C@H](Cc2c[nH]cn2)NC(=O)CNC(=O)[C@H]([C@@H](C)O)NC(=O)CNC(=O)CNC(=O)CC[C@@H](C(=O)N[C@@H](Cc2ccc(O)cc2)C(=O)N[C@@H](Cc2ccccc2)C(=O)N[C@@H](CCC(N)=O)C(=O)N[C@@H](CCCNC(=N)N)C(=O)NCC(=O)N[C@@H](CC(=O)O)C(=O)N[C@@H](CC(C)C)C(=O)N[C@@H](CCC(N)=O)C(=O)N[C@@H](CO)C(=O)N[C@@H](Cc2ccccc2)C(=O)N[C@@H](Cc2ccc(O)cc2)C(=O)NCC(=O)O)NC(=O)[C@@H]2CCCN2C1=O [lassotide 46] (GGTGHIPEYFQRGDLQSFYG-OH; lactam N-8; C-terminus assumed)
- IC50 (integrin αvβ6; [2]): 2.1 nM
- IC50 (integrin αvβ8): 1.3 nM

Compound: CC[C@H](C)[C@@H]1NC(=O)[C@H](CO)NC(=O)CNC(=O)[C@H](CCCNC(=N)N)NC(=O)CNC(=O)CNC(=O)CC[C@@H](C(=O)N[C@@H](Cc2ccc(O)cc2)C(=O)N[C@@H](Cc2ccccc2)C(=O)N[C@H](C(=O)N[C@@H](CCCNC(=N)N)C(=O)NCC(=O)N[C@@H](CC(=O)O)C(=O)N[C@@H](CC(C)C)C(=O)N[C@@H](CCC(N)=O)C(=O)N[C@@H](CO)C(=O)N[C@@H](Cc2ccccc2)C(=O)N[C@@H](Cc2ccc(O)cc2)C(=O)NCC(=O)O)C(C)C)NC(=O)[C@@H]2CCCN2C1=O [lassotide 41] (GGRGSIPEYFVRGDLQSFYG-OH; lactam N-8; C-terminus assumed)
- IC50 (integrin αvβ6; [2]): 1.4 nM
- IC50 (integrin αvβ8): 5.8 nM

- IC50 (integrin αvβ6): 1.4 nM
Compound: CC[C@H](C)[C@@H]1NC(=O)[C@H](CO)NC(=O)CNC(=O)[C@H](CCCNC(=N)N)NC(=O)CNC(=O)CNC(=O)CC[C@@H](C(=O)N[C@@H](Cc2ccc(O)cc2)C(=O)N[C@@H](Cc2ccccc2)C(=O)N[C@@H](CCC(N)=O)C(=O)N[C@@H](CCCNC(=N)N)C(=O)NCC(=O)N[C@@H](CC(=O)O)C(=O)N[C@@H](CC(C)C)C(=O)N[C@@H](CCC(N)=O)C(=O)N[C@@H](CO)C(=O)N[C@@H](Cc2ccccc2)C(=O)N[C@@H](Cc2ccc(O)cc2)C(=O)NCC(=O)O)NC(=O)[C@@H]2CCCN2C1=O [lassotide 44] (GGRGSIPEYFQRGDLQSFYG-OH; lactam N-8; C-terminus assumed)
